Entries after “also recorded” stand apart in the source; their conditions may differ. Read-outs that look alike come from different tables or passages of the source.
Columns and labels:
[1] = tested on: influenza virus (A/HPB/359/95 (H3N2)); assay: organism not typed; settings: MDCK, read-out: Anti-IAV EC50
[2] = Cytotoxicity test in MDCK cells (CPE method, 72 hours); settings: dog
[3] = tested on: A/PR/8/34 (H1N1) (PR8); assay: Antiviral CPE assay in MDCK, other influenza strains; type: cell-based, influenza A virus (IAV); settings: Influenza A virus, CPE method
[4] = tested on: B/Massachusetts/2/2012 (BY-3); assay: as above; type: cell-based; settings: Influenza B virus
[5] = tested on: A/PR/8/34 (H1N1) virus; assay: Virus titer test and histopathological examination in influenza virus mouse model; type: in vivo, C57BL/6J mice; settings: for lung tissue pathology examination: left lung 5 days after infection
Experimental: Fifteen C57BL/6J mice (female, 8 weeks, 18-20 g) were divided into 5 groups (group A, group B, group C, group D and group E), 3 in each group. After intranasal inoculation with a semi-lethal dose of A/PR/8/34 (H1N1) virus, group A/group B/group C were respectively given intragastric administration of test drugs (group A: DS1494; group B: DS1833; group C: M42, all suspended in 1% methylcellulose solution, and the dosage of each group was 2 mg/kg), group D was given oral gavage with the same volume of 1% methylcellulose solution, and group E was given intraperitoneal injection of test drug DS1835 (the dosage was 1.4 mg/kg, dissolved in physiological saline), and each group was given drug administration once a day. Lung tissue samples were collected 5 days after infection, the left lung was examined for pathology, and the right lung was homogenized for TCID50 determination.

[6] = tested on: B/Beijing-Haidian/1386/2013 (BV); assay: Antiviral CPE assay in MDCK, other influenza strains; type: cell-based; settings: Influenza B virus, CPE method
[7] = tested on: A/WSN/33 (H1N1); assay: as above; type: cell-based, influenza A virus (IAV); settings: Influenza A virus, CPE method
[8] = in vitro; settings: dog
[9] = tested on: influenza virus (A/HPB/359/95 (H3N2))
[10] = tested on: MDCK cells; assay: Cytotoxicity test in MDCK cells (CPE method, 72 hours); settings: read-out: TC50 in MDCK; MDCK cells, 72 hours, CPE method
[11] = PR8 = A/Puerto Rico/8/1934(H1N1), MDCK
[12] = 2 mg/kg intragastric once a day
[13] = HD = B/Beijing-Haidian/1386/2013 (BV)

Row | Molecule | EC50 [1] | CC50 [8] | also measured
1 | O=C1c2c(O)c(=O)ccn2N([C@@H]2c3ccccc3SCc3c2ccc(F)c3F)[C@@H]2COC3(CC3)CN12 [Compound M41, reference compound] | 0.63 ± 0.03 nM | – | CC50 at 72 h ([2]; MDCK cells): > 20000 nM
2 | COC(=O)OCOc1c2n(ccc1=O)N([C@@H]1c3ccccc3SCc3c1ccc(F)c3F)[C@@H]1COC3(CC3)CN1C2=O [Compound M42, reference compound] | 0.76 ± 0.04 nM | > 20000 nM | EC50 [3, 11]: 0.00193 ± 0.00055 µM; EC50 ([4]; MDCK): 0.00724 ± 0.00136 µM; lung tissue pathology examination [5, 12]: clear bronchial structure, and the epithelial cells were arranged neatly with a small amount of inflammatory cell infiltration; also recorded: a small amount of epithelial cell necrosis was observed; EC50 [6, 13]: 0.00621 ± 0.00109 µM; EC50 [7]: 0.00228 ± 0.00042 µM
3 | COC(=O)OCOc1c2n(ccc1=O)N([C@@H]1c3ccccc3[Se]Cc3c1ccc(F)c3F)[C@@H]1COCCN1C2=O [Compound M43, reference compound] | – | – | EC50 ([4]; MDCK): 0.0113 ± 0.00253 µM; EC50 [6, 13]: 0.00839 ± 0.00175 µM
4 | O=C1c2c(O)c(=O)ccn2N([C@@H]2c3ccccc3[Se]Cc3c2ccc(F)c3F)[C@@H]2COC3(CC3)CN12 [DS1491] | 0.2 ± 0.01 nM | > 20000 nM | therapeutic index (TC50/EC50) [9]: higher therapeutic index
5 | [2H][C@@]1(N2[C@@H]3COC4(CC4)CN3C(=O)c3c(O)c(=O)ccn32)c2ccccc2[Se]Cc2c1ccc(F)c2F [DS1492] | 0.14 ± 0.03 nM | > 20000 nM | –
6 | C[C@@]1(N2[C@@H]3COC4(CC4)CN3C(=O)c3c(O)c(=O)ccn32)c2ccccc2[Se]Cc2c1ccc(F)c2F [DS1493] | 0.1 ± 0.01 nM | > 20000 nM | therapeutic index (TC50/EC50) [9]: higher therapeutic index
7 | [2H][C@@]1(N2[C@@H]3COC4(CC4)CN3C(=O)c3c(OCOC(=O)OC)c(=O)ccn32)c2ccccc2[Se]Cc2c1ccc(F)c2F [DS1495] | 0.28 ± 0.03 nM | > 20000 nM | –
8 | COC(=O)OCOc1c2n(ccc1=O)N([C@]1(C)c3ccccc3[Se]Cc3c1ccc(F)c3F)[C@@H]1COC3(CC3)CN1C2=O [DS1496] | 0.43 ± 0.02 nM | > 20000 nM | –
9 | O=C1c2c(OCOP(=O)(O)O)c(=O)ccn2N([C@@H]2c3ccccc3[Se]Cc3c2ccc(F)c3F)[C@@H]2COC3(CC3)CN12 [DS1497] | 0.37 ± 0.04 nM | > 20000 nM | –
10 | [2H][C@@]1(N2[C@@H]3COC4(CC4)CN3C(=O)c3c(OCOP(=O)(O)O)c(=O)ccn32)c2ccccc2[Se]Cc2c1ccc(F)c2F [DS1498] | 0.31 ± 0.02 nM | – | CC50 at 72 h [2]: > 20000 nM
11 | C[C@@]1(N2[C@@H]3COC4(CC4)CN3C(=O)c3c(OCOP(=O)(O)O)c(=O)ccn32)c2ccccc2[Se]Cc2c1ccc(F)c2F [DS1499] | 0.29 ± 0.02 nM | > 20000 nM | –
12 | CCOP(=O)(OCC)OCOc1c2n(ccc1=O)N([C@@H]1c3ccccc3[Se]Cc3c1ccc(F)c3F)[C@@H]1COC3(CC3)CN1C2=O [DS1831] | 0.19 ± 0.02 nM | > 20000 nM | –
13 | O=C1c2c(OCOP(=O)(OCc3ccccc3)OCc3ccccc3)c(=O)ccn2N([C@@H]2c3ccccc3[Se]Cc3c2ccc(F)c3F)[C@@H]2COC3(CC3)CN12 [DS1832] | 0.21 ± 0.03 nM | > 20000 nM | –
14 | [2H]C([2H])([2H])OC(=O)OCOc1c2n(ccc1=O)N([C@@H]1c3ccccc3[Se]Cc3c1ccc(F)c3F)[C@@H]1COC3(CC3)CN1C2=O [DS1833] | 0.11 ± 0.02 nM | > 20000 nM | EC50 [3, 11]: 0.00089 ± 0.00022 µM; EC50 ([4]; MDCK): 0.00277 ± 0.00075 µM; lung tissue pathology examination [5, 12]: clear bronchial structure, and the epithelial cells were arranged neatly with a small amount of inflammatory cell infiltration; lung tissue virus titers compared with M42 at the same dose ([5]; 2 mg/kg intragastric once a day, right lung TCID50 5 days after infection): lower; EC50 [6, 13]: 0.00338 ± 0.00067 µM; EC50 [7]: 0.00102 ± 0.00027 µM
15 | [2H]C([2H])([2H])OC(=O)OCOc1c2n(ccc1=O)N([C@]1([2H])c3ccccc3[Se]Cc3c1ccc(F)c3F)[C@@H]1COC3(CC3)CN1C2=O [DS1834] | 0.1 ± 0.01 nM | > 20000 nM | –
16 | O=C1c2c(O)c(=O)ccn2N([C@@H]2c3ccccc3[Se]Cc3c2ccc(F)c3F)[C@@H]2COC3(CC3)CN12 [DS1835] | – | – | lung tissue pathology examination ([5]; 1.4 mg/kg intraperitoneal injection once a day): clear bronchial structure, and the epithelial cells had complete morphology and neat arrangement; lung tissue virus titer ([5]; 1.4 mg/kg intraperitoneal injection once a day, right lung TCID50 5 days after infection): lowest lung tissue virus titer
17 | [2H]C([2H])([2H])OC(=O)OCOc1c2n(ccc1=O)N([C@@H]1c3ccccc3SCc3c1ccc(F)c3F)[C@@H]1COC3(CC3)CN1C2=O [DS1837] | 0.65 ± 0.03 nM | – | EC50 [3, 11]: 0.00126 ± 0.00047 µM; EC50 ([4]; MDCK): 0.00588 ± 0.00091 µM; EC50 [6, 13]: 0.00565 ± 0.00073 µM; EC50 [7]: 0.00136 ± 0.00022 µM; CC50 at 72 h [8]: > 20000 nM
18 | [2H]C([2H])([2H])OC(=O)OCOc1c2n(ccc1=O)N([C@]1([2H])c3ccccc3SCc3c1ccc(F)c3F)[C@@H]1COC3(CC3)CN1C2=O [DS1838] | 0.52 ± 0.04 nM | – | CC50 at 72 h [8]: > 20000 nM
19 | O=C1c2c(OP(=O)(O)O)c(=O)ccn2N([C@@H]2c3ccccc3[Se]Cc3c2ccc(F)c3F)[C@@H]2COC3(CC3)CN12 [DS14910] | 0.21 ± 0.02 nM | > 20000 nM | –
20 | [2H][C@@]1(N2[C@@H]3COC4(CC4)CN3C(=O)c3c(OP(=O)(O)O)c(=O)ccn32)c2ccccc2[Se]Cc2c1ccc(F)c2F [DS14911] | 0.19 ± 0.03 nM | > 20000 nM | –
21 | C[C@@]1(N2[C@@H]3COC4(CC4)CN3C(=O)c3c(OP(=O)(O)O)c(=O)ccn32)c2ccccc2[Se]Cc2c1ccc(F)c2F [DS14912] | 0.17 ± 0.01 nM | > 20000 nM | –
22 | O=C1c2c(OCOP(=O)(O)O)c(=O)ccn2N([C@@H]2c3ccccc3[Se]Cc3c2ccc(F)c3F)[C@@H]2COC3(CC3)CN12 [DS14915] | – | – | EC50 [3, 11]: 0.00097 ± 0.00036 µM; EC50 ([4]; MDCK): 0.00218 ± 0.00056 µM; EC50 [6, 13]: 0.00247 ± 0.00048 µM; EC50 [7]: 0.00113 ± 0.00031 µM
23 | O=C1c2c(OCOP3(=O)OCCCO3)c(=O)ccn2N([C@@H]2c3ccccc3[Se]Cc3c2ccc(F)c3F)[C@@H]2COC3(CC3)CN12 [DS15812] | 0.25 ± 0.03 nM | > 20000 nM | –
24 | NC(=O)c1ncn([C@@H]2O[C@H](CO)[C@@H](O)[C@H]2O)n1 [Ribavirin, reference compound] | – | – | EC50 ([3]; PR8, MDCK, Ribavirin in μM): 29.6 ± 3.11 µM; EC50 ([4]; BY-3, MDCK, CPE method, Ribavirin in μM, read-out: EC50): 33.1 ± 3.29 µM; EC50 ([6]; HD, Ribavirin in μM): 34.5 ± 4.85 µM; EC50 ([7]; Ribavirin in μM): 27.2 ± 2.79 µM
25 | Baricitinib | – | – | CC50 [10]: > 20000 nM

Source: patent US20260102418A1, “An anti-influenza virus derivative and uses thereof” (Shijiazhuang Discovery Medicine Technology Co., Ltd., priority 2022, published 2026)
